One molecule from PubChem BioAssay (NCI) can be followed below.

Among the test systems are SNB-19 CNS; SNB-75 CNS; MCF7 breast; K-562 leukemia; HCT-15 colon; A498 renal; TK-10 renal; HCT-116 colon; A549 NSCLC; HS 578T breast; 786-0 renal; COLO 205 colon; OVCAR-5 ovarian; RPMI-8226 leukemia.
What all share (test): NCI tumour cell line growth inhibition, 48 h

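Step 1: Grow cells in 96-well plates. Step 2: Expose to compound for 48 hours at 5 concentrations. Step 3: Interpolate endpoints linearly; if unreached, use highest concentration. TGI denotes the concentration required for complete inhibition of growth.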

`CCc1n[nH]c(=S)n1/N=C\c1ccc(-c2ccccc2Cl)o1`: the TGI with SNB-19 CNS is more than 100 µM; in the experiment on SNB-75 CNS, more than 100 µM; in the experiment on MCF7 breast, more than 100 µM; in the experiment with K-562 leukemia, 53.2 µM; in the experiment on HCT-15 colon, 83.3 µM; in the experiment on A498 renal it was more than 100 µM. Also, the TGI in the experiment on TK-10 renal is more than 100 µM; in the experiment on HCT-116 colon, 66.6 µM; in the experiment with A549 NSCLC it was more than 100 µM; in the experiment on HS 578T breast, more than 100 µM; in the experiment with 786-0 renal, 86.6 µM; in the experiment with COLO 205 colon, more than 100 µM. The TGI was more than 100 µM with OVCAR-5 ovarian and 51.3 µM in the experiment with RPMI-8226 leukemia.
